Reference: ChEMBL document CHEMBL6177995, “In Silico Discovery of Novel Potent Trace Amine-Associated Receptor TAAR1 Agonists as Promising Drug Candidates for the Treatment of Schizophrenia” (J Med Chem, 2025)

Key:
[1] = target: T1, Trace amine-associated receptor 1 (Homo sapiens, UniProt Q96RJ0); experiment: Agonist activity at TAAR1 (unknown origin) transfected in HEK293 cells co-transfected with GalphaS-Nluc, Gbeta1/3 and Ggamma1/2/9-mVenus assessed as GalphaS-Gbeta/gamma dissociation by BRET assay; format: functional, cell-based
T1 sequence (Q96RJ0 whole entry): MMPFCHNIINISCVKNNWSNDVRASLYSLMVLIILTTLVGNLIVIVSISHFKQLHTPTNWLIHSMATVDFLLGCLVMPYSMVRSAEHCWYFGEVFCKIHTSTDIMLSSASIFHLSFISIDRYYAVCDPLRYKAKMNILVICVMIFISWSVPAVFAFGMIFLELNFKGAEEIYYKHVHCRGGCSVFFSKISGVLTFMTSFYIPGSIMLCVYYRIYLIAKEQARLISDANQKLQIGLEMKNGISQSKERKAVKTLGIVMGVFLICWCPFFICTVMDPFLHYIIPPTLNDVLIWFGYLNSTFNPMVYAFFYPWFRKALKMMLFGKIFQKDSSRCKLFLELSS

[2] = target: T1, Trace amine-associated receptor 1; experiment: Agonist activity at TAAR1 (unknown origin) transfected in HEK293 cells co-transfected with Galphaq-Nluc, Gbeta1/3 and Ggamma1/2/9-mVenus assessed as Galphaq-Gbeta/gamma dissociation by BRET assay; format: functional, cell-based

Row | Compound | EC50 [1] [nM] | EC50 [2] [nM]
1 | O=S(=O)(NC[C@@H]1CCCN1)c1ccc2[nH]cnc2c1 | 47.2 | 131
2 | COc1ccc(S(=O)(=O)NC[C@@H]2CCCN2)cc1 | – | 35.7
3 | O=S(=O)(NC[C@@H]1CCCN1)c1cccc(Cl)c1 | > 10000 | > 10000
4 | O=S(=O)(NC[C@@H]1CCCN1)c1ccccc1Cl | – | 63.2
5 | O=S(=O)(NC[C@@H]1CCCN1)c1c(Cl)cccc1Cl | > 10000 | > 10000
6 | N#Cc1ccc(S(=O)(=O)NC[C@@H]2CCCN2)cc1 | > 10000 | > 10000
7 | CC(C)CC(N)c1nc2ccccc2[nH]1 (stereo not given) | 100 | –
8 | O=S(=O)(NC[C@@H]1CCCN1)c1ccc2ccccc2c1 | – | 55
9 | Cc1ccccc1S(=O)(=O)NC[C@@H]1CCCN1 | > 10000 | > 10000
10 | O=c1[nH]c2ccc(S(=O)(=O)NC[C@@H]3CCCN3)cc2[nH]c1=O | – | 5.5
